In patent publication US20230036060A1, “DUAL-CONTROLLED DRUG AND PHOTOACTIVATABLE SYSTEM FOR SPATIOTEMPORAL CONTROL OF CELL THERAPY” (THE REGENTS OF THE UNIVERSITY OF CALIFORNIA, priority 2019, published 2023):

Tests used:
[1] = cited from earlier work
ERT2-mCherry = target: T1, ERT2-mCherry (Homo sapiens, UniProt P03372, G400V/L544A/M543A); experiment: Time-lapse fluorescence microscopy of 4-OHT-induced nuclear translocation of ERT2-mCherry in HEK293T cells; type: cell-based; settings: 4-OHT 500 nM
T1 construct: expressed in transfected cells; host or cells: HEK293T
T1 sequence (P03372 311-547 G400V/M543A/L544A limits assumed): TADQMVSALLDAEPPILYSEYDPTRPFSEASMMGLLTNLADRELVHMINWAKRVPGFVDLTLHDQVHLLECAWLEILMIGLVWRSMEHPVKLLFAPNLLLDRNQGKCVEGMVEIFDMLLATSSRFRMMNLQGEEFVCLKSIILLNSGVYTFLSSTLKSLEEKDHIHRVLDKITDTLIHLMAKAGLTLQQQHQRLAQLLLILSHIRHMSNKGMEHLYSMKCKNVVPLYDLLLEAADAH
Method: FIG. 2E illustrates representative time-lapse fluorescence microscopy images of HEK293T cells transiently expressing ERT2-mCherry before and after the addition of nuclear-localizing 4-OHT (500 nM) (imaged every 2 min, 100× mag., scale bar=10 μm, n=6 independently measured cells).
Tamoxifen-induced nuclear import translocation dynamics in HEK293T cells were further characterized using an ERT2-mCherry fusion protein (Fig. S1F). Using time-lapse fluorescence microscopy, we discovered that nuclear translocation driven by 4-OHT (500 nM) occurred on the order of hours. ERT2-mCherry protein was only clearly nuclear-localized (with a nuclear-to-cytosolic mean fluorescence intensity ratio≥2) after approximately three hours (FIG. 2E), highlighting an effective time window for blue light stimulation to drive robust Cre-loxP recombination in ERT2-based photoactivatable construct designs.

For CC/C(=C(\c1ccccc1)c1ccc(OCCN(C)C)cc1)c1ccccc1 [tamoxifen], the “terminal elimination half-life (plasma concentrations)” value [1] is listed as 5 to 7 h.

With 4-hydroxytamoxifen [4-OHT] the “time to significant 4-OHT-induced nuclear translocation of ERT2-mCh fusion protein” value (ERT2-mCherry) was “approximately 3 h” and the “nuclear-to-cytosolic mean fluorescence intensity ratio of ERT2-mCherry” value (ERT2-mCherry; after approximately three hours) was ≥ 2.
